# Patent US11623009B2, “Bone fracture repair by targeting of agents that promote bone healing” (Purdue Research Foundation, priority 2015, dated 2023)
# Key:
# [1] = solubility in water; assay type: physicochemical; conditions: 6BIO by itself
# Description: The drug being attached to the unimers was a GSK3β inhibitor, 6BIO. […] By including 6BIO in the unimer design, the unimer solubilized the drug while the drug stabilized the micelle. The oxime of 6BIO was first conjugated to the carboxylic group of a 4-pentynoic acid derivative and then clicked to the azide-containing unimer by the alkyne on the 4-pentynoic acid derivative. Upon completion of the click reaction, the micelle was purified, dried, and formed micelles upon reconstitution in PBS.
# [2] = 24 h organ biodistribution of radio-iodinated micelles and 6BIO in mice with femoral fracture; assay type: in vivo, CD4 Swiss mice
# Protocol: Radio-iodination of micelles and 6BIO. The stannylated unimers and stannylated 6BIO (0.3-0.5 μmol) were dissolved in 100 μL DMF. The solutions were transferred to Wheaton V-vials containing a solution of [^125I]NaI (5.0 mCi) in 100 μL DMF phosphate-buffered saline (PBS) (pH 7.4). Chloramine-T was added, and the reaction mixture stirred for 15 min at ambient temperature. Purification of the iodinated micelles was performed using a LH20 column eluted with MeOH. Iodinated 6BIO was dissolved in EtOAc and was washed twice with water. The solvent of all three reactions was evaporated using a stream of nitrogen, and the residue was dissolved with PBS (pH 7.4) to obtain solutions with an activity concentration of 370 kBq/100 μL. The overall radiochemical yield was ca. 10%.
# Murine fracture induction. […] The skin incision was made medial parapetellar.
# Injection and dissection techniques/counting for 24 h biodistribution. From the iodinated products described previously 1 uCi/mL solutions were made in sterile PBS. […] Two weeks following fracture induction, each mouse received a 0.1 μCi (0.1 mL) dose of the radio-iodinated linear micelles, branched micelle, or free drug. Animals were then placed back in their cages for 24 h. At 24 h they were sacrificed using CO2 excess. Blood was drawn from a cardiopuncture and all other organs measured were removed (lungs, liver, spleen, kidneys, fractured femur, healthy femur). The activity was counted using Packard Cobra Auto-Gamma and was normalized by dividing the count rate by the weights of each organ.
# Biodistribution: Organ biodistribution at 24 h. […] Although a cleavable linker is necessary for therapy studies, it may pose a problem with biodistribution studies. At 24 h of an in vivo study, 30% of the drug may be released. In a biodistribution study, premature release would not give accurate information on how well the targeting ligand is able to remain in the fracture site. A non-degradable oxime ether linker replaced the oxime-ester linker in the micelles for biodistribution. […]
# [3] = test system: stabilized femoral fracture; assay: fracture healing efficacy, μCT analysis of fracture callus; assay type: in vivo, male CD4 Swiss Webster mice; conditions: 6.9 nmol/kg/dose i.v. every 3 days, 3 weeks after fracture, mean±SEM
# Protocol: Mouse handling. All animal experiments were performed in accordance to Purdue University's IACUC approved protocols. Forty mice (10 per group) 31-35 g male CD4 Swiss Webster mice were purchased from Harlan laboratories. Mice were able to move freely throughout the experiment. At 3 weeks following fracture induction, mice were euthanized using a CO2 overdose. […] Mouse bone fracture. […] The skin incision was made over the knee. The patella was then dislocated and a small hole was made under the patella with a 25 guage needle. The needle was used to ream the intramedullary canal. A 22 guage locking nail was produced by flattening both ends was then inserted. The incision site was sutured and the femur was then fractured using a three-point bending device. […] Mouse dosing. Mice were dosed intravenously by tail vein injection every 3 days starting on the day of fracture induction. […] Mice receiving drug dosages were administered drugs at the follow dose 6.9 nmol/kg/dose in approximately 0.1 mL of PBS. PBS control mice received 0.1 mL of PBS. μCT analysis. […] The bones were scanned while immersed in PBS to prevent dehydration. Scanco μCT software was used to analyze the images for bone density, total volume (TV), relative bone volume (BV/TV), trabecular thickness (Tb.Th), and trabecular spacing (Tb.Sp). Volumes of interest included the fracture callus, and both cortical and trabecular bone between the points on the cortical bone where the bone was fractured. Statistical analysis. Statistical analyses were calculated using Prism GraphPad software. Data is presented in results as mean±standard error of the mean (SEM).
# [4] = mouse, in vivo
# Protocol: CD4 Swiss mice (30-35 g) acquired from Harlan laboratories were used for these experiments.
# The study was performed on 3 groups of mice with 5 mice per group. Two weeks following fracture induction each mouse received 0.1 mCi (0.1 mL) of dose. Animals were then returned to their cages until euthanasia by CO2 overdose at the desired time point (1 h, 4 h, 24 h). Animals were imaged using MiLabs U-SPECT-II/CT. 3D reconstructions were performed using Image J software.
# SPECT/CT biodistribution.
# [5] = 24 h after injection, two weeks after fracture, 125I-labelled, non-degradable oxime ether linker
structure (smiles),measurement,setting,value
"O=C1Nc2ccccc2C1=C1Nc2cc(Br)ccc2C1=NO [6BIO, 6′-bromoindirubin-3′-oxime]",solubility in water,[1],not soluble in water
same,"accumulation in the lungs, liver, and spleen",[2]; 24 h,high accumulation
same,accumulation in fractured femurs,[2]; [5],0.4±0.05% of injected dose/gram
same,accumulation in healthy femurs,[2]; [5],0.5±0.10% of injected dose/gram
same,Tb. Sp (trabecular spacing),[3],0.191 ± 0.009 mm
same,bone density of fracture callus,[3],337.8±14.2 mg HAp/cm^3
same,BV/TV (relative bone volume),[3]; listed as Free 6BIO,0.338 ± 0.015
same,TV (callus total volume),[3]; listed as Free 6BIO,48.2 ± 5.8 mm^3
same,Tb. Th (trabecular thickness),[3]; listed as Free 6BIO,0.134 ± 0.007 mm
same,BV/TV (relative bone volume),[3]; listed as free 6BIO,0.338±0.015
same,TV (callus total volume),[3]; listed as free 6BIO,48.2±5.8 mm^3
same,Tb. Th (trabecular thickness),[3]; listed as free 6BIO,0.134±0.007 mm
same,SPECT/CT distribution at 1 h,[4],primarily found in the stool
same,SPECT/CT distribution at 4 h,[4],primarily contained in the bowel
same,SPECT/CT distribution at 24 h,[4],appears to be cleared
